Format in all cases: in vivo, C57/BL6 mice
Data set [1] can be described thus: Study 1: body weight gain in mice on standard laboratory diet, 12 weeks intragastric supplementation. The text has this: Materials Used: Shilajit (PrimaVie®, Natreon, Inc., New Brunswick, N.J.), a standardized dietary supplement ingredient extracted and processed from Shilajit bearing rocks, containing not less than about 50% by weight fulvic acids (FAs), at least about 10% by weight dibenzo-α-pyrone chromoproteins, and at least 0.3%, or more, by weight total dibenzo-α-pyrones (DBPs), 3-OH-DBP (99.0% purity, Natreon, Inc.), and 3,8-(OH)2-DBP (99.0% purity, Natreon, Inc) were used.
Three groups of adult C57/BL6 mice (n=8) were intragastrically supplemented with purified Shilajit (PS), 3,8-dihydroxy-dibenzo-α-pyrone (3,8-(OH)2-DBP) or placebo for 12 weeks. Body weight was measured every week. At the end of week 12, skeletal muscle tissue was harvested for gene profiling. Some tissue was stored for histology and HPLC analysis.
The control group of mice received DMSO in corn oil while the PS group received 100 mg of purified Shilajit/kg body weight of mice, dissolved in water and the DBP group received 10 mg of 3,8-(OH)2-DBP/kg body weight of mice, dissolved in DMSO/corn oil.
At week 12, the following tissues were collected: heart, lung, liver, brain, muscles, adipose tissue, skeletal muscle (vastus lateralis) and whole blood.

Data set [2] in a line: Study 2: body weight gain in mice on standard laboratory diet, 10 then 50 mg/kg DBPs. The note with it: for less body weight gain / less gain in body weight: 10 mg/kg b.w.; for less body weight gain: at 8 weeks; for less gain in body weight: at four weeks; for less weight gain: 3 weeks after increasing the dose to 50 mg/kg b.w. (from 13th week). On the procedure:
Since the results from Study 1 were totally unexpected, Study 2 was carried out in order to validate the results from Study 1 and also to determine if another bioactive of Shilajit, 3-hydroxy-dibenzo-α-pyrone, may have a similar beneficial effect on controlling body weight gain. Study 2 was carried out under similar experimental conditions as Study 1, using standard laboratory diet, except that a 10 mg/kg body weight dose was administered for the first 12 weeks and then the dose was increased to 50 mg/kg body weight from the 13th week through the 19th week. The primary purpose of increasing the dose is to find out if the response is dose proportional. […] It is interesting to note that 3 weeks after increasing the dose of DBPs to 50 mg/kg b.w., 3-OH-DBP group still maintained about 45% less weight gain while the 3,8-(OH)2-DBP group retained only about 10% less weight gain. […] The secondary purpose of increasing the dose is to find out if increased dose is toxic. Different tissues were collected from the mice and toxicological examination will be conducted.

Data set [3] is described as follows: Study 3: body weight gain in mice on high fat diet, later switched to standard diet. The settings on record: starting at 14 weeks, after switching to standard laboratory diet. On the procedure:
Since the Studies 1 and 2 were carried out with standard laboratory diet, it was imperative to do a study with high fat diet fed mice. Study 3 was conducted using such a diet (Bio-Serve Cat# 534282, 36% fat). After 11 weeks, the high fat diet was replaced with the standard laboratory diet. […] However, starting at 14 weeks after switching to the standard laboratory diet, there is a trend in both the DBP groups for less weight gain compared to the placebo group. […] Thus, it is possible that the DBPs, especially the 3-OH-DBP, may have the potential to control body weight gain in individuals on fatty diet as well, though at a slower pace than in individuals on normal diet.

In the case of `O=c1oc2cc(O)ccc2c2ccc(O)cc12` [3,8-(OH)2-DBP, 3,8-dihydroxy-dibenzo-α-pyrone], the “weight gained in 90 days” value in data set [1] (10 mg/kg body weight in DMSO/corn oil, intragastric, standard laboratory diet, 90 days) was “about 7.5%”. For the same compound, the “overt signs of health compromise” value in data set [1] (10 mg/kg body weight, 12 weeks) is on record as “no overt signs of health compromise”. Also, the “age-dependent gain in body weight” value in data set [1] (standard laboratory diet/conditions) is listed as “significant decrease”. In addition, in data set [2], the “less body weight gain” value is “about 50%”, the “less gain in body weight” value is listed as roughly 40% and the less weight gain entry is recorded as “about 10%”.
Consider `O=c1oc2cc(O)ccc2c2ccccc12` [3-OH-DBP, 3-hydroxy-dibenzo-α-pyrone], for which, in data set [2], the “less body weight gain” value was “about 50%”, the “less gain in body weight” value is on record as “about 45%” and the less weight gain result is recorded as “about 45%”. Moreover, in data set [3], the “trend for less weight gain compared to placebo” value is reported as “especially prominent”.

Values taken from patent US9901596B2, “Regulation of body weight gain by using dibenzo-alpha-pyrones” (Natreon, Inc., priority 2013, dated 2018).
